{"source": "patent US8802731B2", "about": "“N-acetyl beta alanine methods of use” (ThermoLife International, LLC, priority 2011, dated 2014)", "key": {"solubility in water": {"assay": "solubility in water", "assay_type": "physicochemical", "details": "found by applicants"}, "well trained athletes": {"test_system": "well trained athletes", "assay": "effects reported by well trained athletes given N-acetyl-beta alanine", "assay_type": "in vivo, human", "details": "5 grams per day x1, 10 well trained athletes, self-report", "text": "For the exemplary purposes of this disclosure, the Applicants have also administered N-acetyl-beta alanine at a dose of 5 grams per day ×1 in 10 subjects, all of them well trained athletes that had in the past used beta alanine and were well aware of it's benefits. All of the subjects had not used beta alanine for at least a month. They were asked to report the effects of the “new beta alanine preparation” they were offered."}, "[1]": {"assay": "solubility in organic solvents", "assay_type": "physicochemical"}, "subjects [2]": {"test_system": "subjects", "assay": "paresthesia after administration of N-acetyl beta alanine to subjects", "assay_type": "in vivo, human", "text": "For the exemplary purposes of this disclosure, the Applicants have administered N-acetyl beta alanine to over 30 different subjects in doses ranging from 1 to even 10 grams."}, "[3]": {"details": "described (literature); cited from earlier work"}, "[4]": {"test_system": "experienced resistance-trained athletes", "details": "four weeks of supplementation; cited from earlier work"}, "elderly men and women": {"test_system": "elderly men and women", "details": "cited from earlier work"}, "subjects [5]": {"test_system": "subjects", "details": "10 weeks of resistance training with supplementation; cited from earlier work"}, "[6]": {"details": "cited from earlier work"}, "[7]": {"details": "cited from earlier work", "remark": "listed apart in the source"}, "mice": {"test_system": "mice", "details": "cited from earlier work"}, "individuals": {"test_system": "individuals", "details": "cited from earlier work"}, "[8]": {"details": "single ingested dose; cited from earlier work"}, "fructose-fed rats": {"test_system": "fructose-fed rats", "details": "preliminary experiment; cited from earlier work"}}}
{"smiles": "CC(=O)NCCC(=O)O", "note": "[N-acetyl beta alanine, 3-acetamidopropanoic acid]", "values": [{"measurement": "solubility in water", "setting": "solubility in water", "value": 22, "unit": "g/100 mL"}, {"measurement": "rate at which full benefits were exhibited", "setting": "well trained athletes", "value": "full benefits were exhibited at a faster rate"}, {"measurement": "reported effectiveness compared with normal beta-alanine", "setting": "well trained athletes", "value": "improved effectiveness over normal beta-alanine"}, {"measurement": "solubility in water and organic solvents", "setting": "[1]", "value": "soluble in water and organic solvents"}, {"measurement": "paresthesia", "setting": "subjects [2]; large doses of 5+ grams", "value": "no paresthesia observed"}, {"measurement": "paresthesia or negative feelings described by users", "setting": "subjects [2]; over 30 subjects, doses ranging from 1 to 10 grams", "value": "No paresthesia or negative feelings"}]}
{"smiles": "NCCC(=O)O", "note": "[beta alanine, β-Alanine]", "values": [{"measurement": "water solubility", "setting": "[3]", "value": "55-89 grams/100 ml"}, {"measurement": "muscular endurance during resistance training", "setting": "[4]", "value": "can significantly improve muscular endurance"}, {"measurement": "increase in physical working capacity fatigue threshold", "setting": "elderly men and women; 800 mg x3 per day, elderly (55-92 years)", "value": 28, "unit": "%"}, {"measurement": "physical working capacity / onset of neuromuscular fatigue", "setting": "elderly men and women; ninety days of supplementation, elderly men and women", "value": "may increase physical working capacity by delaying the onset of neuromuscular fatigue"}, {"measurement": "increase in Muscle-Carnosine", "setting": "subjects [5]", "value": "12.81+/−7.97 mmol×kg (−1) dry muscle"}, {"measurement": "acidosis due to exercise", "setting": "[6]; 4.8 grams per day", "value": "can attenuate acidosis due to exercise"}, {"measurement": "fall in blood pH during high-intensity exercise", "setting": "[6]; chronic supplementation", "value": "can attenuate the fall in blood pH"}, {"measurement": "maximal strength or VO2max", "setting": "[7]; in vivo", "value": "does not improve maximal strength or VO2max"}, {"measurement": "onset of neuromuscular fatigue", "setting": "[7]; in vivo", "value": "delay the onset of neuromuscular fatigue"}, {"measurement": "performance in high-intensity exercise", "setting": "[7]; multiple bouts of high-intensity exercise and single bouts lasting more than 60 s", "value": "improvements in performance"}, {"measurement": "behavioral effect of supplemented diet", "setting": "mice", "value": "anxiolytic-like effect"}, {"measurement": "aerobic capacity (VO2max)", "setting": "individuals; post supplementation, 28 days", "value": "reduced aerobic capacity"}, {"measurement": "sub-maximal endurance performance (OBLA)", "setting": "individuals; supplementation for 28 days", "value": "enhanced sub-maximal endurance performance by delaying OBLA"}, {"measurement": "single dose above which symptoms of paresthesia may be observed", "setting": "[8]", "value": "higher than 800 mg"}]}
{"smiles": "NCCC(=O)N[C@@H](Cc1cnc[nH]1)C(=O)O", "note": "[carnosine]", "values": [{"measurement": "diabetes-associated increase in blood pressure", "setting": "fructose-fed rats", "value": "suppressed diabetes-associated increase in blood pressure"}]}
{"smiles": "NCCS(=O)(=O)O", "note": "[taurine]", "values": [{"measurement": "behavioral effect of supplemented diet", "setting": "mice", "value": "antidepressant-like effect"}]}
